Source: US8592410B2, “Cyclic inhibitors of 11BETA-hydroxysteroid dehydrogenase 1” (Vitae Pharmaceuticals, Inc., priority 2008, dated 2013)
Read-outs that look alike come from different tables or passages of the source. One block for each molecule: values may come before it.

Experiments:
[1] = target: T1, human recombinant cytochrome P450 2C19 (Homo sapiens (Human), UniProt P33261)
[2] = target: human recombinant cytochrome P450 3A4 (Homo sapiens (Human), UniProt P08684); assay: Biological Test Example 6: CYP3A4 Inhibition; assay type: in vitro ADME
[3] = target: T2, human recombinant cytochrome P450 2C9 (Homo sapiens (Human), UniProt P11712)
[4] = target: T3, CYP2C9 (Homo sapiens (Human), UniProt P11712); conditions: pH 8
[5] = target: T3, CYP2C9; assay: Biological Test Example 9: CYP2C9 Inhibition (Invitrogen kit, OOMR fluorogenic substrate); conditions: read-out: Biological Test Example 9 CYP2C9 IC50
[6] = target: T2, human recombinant cytochrome P450 2C9; assay: Biological Test Example 7: CYP2C9 Inhibition (Naproxen O-demethylation); conditions: read-out: Biological Test Example 7 CYP2C9, IC50; [O-methyl-14C]-Naproxen substrate
[7] = target: T1, human recombinant cytochrome P450 2C19; assay: Biological Test Example 8: CYP2C19 Inhibition; conditions: read-out: Biological Test Example 8 CYP2C19, IC50
[8] = target: 11β-HSD1 (human liver microsomes) (Homo sapiens (Human), UniProt P28845); conditions: read-out: Average % control inhibition at 100 nM
[9] = Biological Test Example 5: Fraction Unbound in Human Plasma (equilibrium dialysis); assay type: in vitro ADME
[10] = target: T3, CYP2C9; assay: in vitro
[11] = target: T1, human recombinant cytochrome P450 2C19; assay: biochemical
[12] = read-out: Biological Test Example 6 CYP3A4, IC50

Chain of human recombinant cytochrome P450 3A4 (P08684 whole entry): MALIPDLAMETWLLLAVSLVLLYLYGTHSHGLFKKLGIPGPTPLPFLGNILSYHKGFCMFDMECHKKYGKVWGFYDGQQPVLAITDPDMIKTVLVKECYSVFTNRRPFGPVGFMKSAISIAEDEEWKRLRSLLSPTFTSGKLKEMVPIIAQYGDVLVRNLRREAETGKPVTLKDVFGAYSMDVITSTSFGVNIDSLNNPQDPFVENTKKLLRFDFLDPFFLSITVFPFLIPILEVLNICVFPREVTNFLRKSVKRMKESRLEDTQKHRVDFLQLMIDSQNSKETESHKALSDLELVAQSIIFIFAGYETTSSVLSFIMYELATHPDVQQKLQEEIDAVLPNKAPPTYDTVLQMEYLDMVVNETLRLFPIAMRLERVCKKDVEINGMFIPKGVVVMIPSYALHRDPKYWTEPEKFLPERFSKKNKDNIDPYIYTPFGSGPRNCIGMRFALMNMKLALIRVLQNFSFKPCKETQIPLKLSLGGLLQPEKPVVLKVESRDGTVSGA
T2 sequence (P11712 whole entry): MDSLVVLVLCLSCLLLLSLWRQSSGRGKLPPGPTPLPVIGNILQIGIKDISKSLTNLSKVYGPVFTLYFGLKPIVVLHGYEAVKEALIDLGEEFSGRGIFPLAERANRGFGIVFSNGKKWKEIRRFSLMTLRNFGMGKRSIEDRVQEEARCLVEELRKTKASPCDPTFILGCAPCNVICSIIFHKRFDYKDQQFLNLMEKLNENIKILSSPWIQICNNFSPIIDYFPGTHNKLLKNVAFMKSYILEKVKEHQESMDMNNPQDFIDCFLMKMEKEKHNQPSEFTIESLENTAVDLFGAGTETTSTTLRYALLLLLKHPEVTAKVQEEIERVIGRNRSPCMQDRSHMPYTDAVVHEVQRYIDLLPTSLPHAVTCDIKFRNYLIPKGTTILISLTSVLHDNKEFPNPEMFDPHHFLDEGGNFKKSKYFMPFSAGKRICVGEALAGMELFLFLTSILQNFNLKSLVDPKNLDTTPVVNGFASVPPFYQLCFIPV
T3 sequence (P11712 whole entry): as above
T1 sequence (P33261 whole entry): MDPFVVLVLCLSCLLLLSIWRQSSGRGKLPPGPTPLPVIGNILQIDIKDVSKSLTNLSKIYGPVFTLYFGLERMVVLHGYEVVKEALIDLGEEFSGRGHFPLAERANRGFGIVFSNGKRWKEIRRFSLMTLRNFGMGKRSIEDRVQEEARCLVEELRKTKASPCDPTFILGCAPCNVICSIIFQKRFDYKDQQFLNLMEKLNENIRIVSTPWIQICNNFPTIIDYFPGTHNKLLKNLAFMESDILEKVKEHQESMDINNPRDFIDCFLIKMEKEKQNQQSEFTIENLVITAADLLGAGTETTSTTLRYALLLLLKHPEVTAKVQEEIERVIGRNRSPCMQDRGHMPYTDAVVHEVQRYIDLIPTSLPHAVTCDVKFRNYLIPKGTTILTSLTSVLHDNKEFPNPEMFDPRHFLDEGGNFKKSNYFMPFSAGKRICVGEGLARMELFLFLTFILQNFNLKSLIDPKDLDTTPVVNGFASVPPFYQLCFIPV
Chain of 11β-HSD1 (human liver microsomes) (P28845 whole entry): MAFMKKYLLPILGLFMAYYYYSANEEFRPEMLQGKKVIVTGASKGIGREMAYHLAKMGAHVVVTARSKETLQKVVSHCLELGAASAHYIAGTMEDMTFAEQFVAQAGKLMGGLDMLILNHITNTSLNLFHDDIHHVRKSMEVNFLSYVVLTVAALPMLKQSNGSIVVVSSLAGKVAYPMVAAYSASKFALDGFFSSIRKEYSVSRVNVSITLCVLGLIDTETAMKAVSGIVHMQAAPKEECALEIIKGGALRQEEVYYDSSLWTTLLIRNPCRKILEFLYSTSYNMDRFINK

SMILES: C[C@@H](c1ccc(Br)cc1)N1CC[C@](CC(C)(C)O)(c2ccccc2)OC1=O [Comparator Compound 15, reference compound]
IC50 [1]: < 0.4 µM
IC50 [2, 12]: 3.1 µM
IC50 [3]: 7.7 µM
IC50 [4]: 9.5 µM

SMILES: C[C@@H](c1ccc(-c2ccc(=O)n(CC3CC3)n2)cc1)N1CC[C@](CC(C)(C)O)(c2ccccc2)OC1=O [Example 19*, 3-{(S)-1-[4-(1-Cyclopropylmethyl-6-oxo-1,6-dihydro-pyridazin-3-yl)-phenyl]-ethyl}-(S)-6-(2-hydroxy-2-methyl-propyl)-6-phenyl-[1,3]oxazinan-2-one]
IC50 [1]: 5.4 µM
IC50 ([2]; human): 5.7 µM

SMILES: C[C@@H](c1ccc(-c2ccc(=O)n(C)n2)cc1)N1CC[C@](CC(C)(C)O)(c2ccc(F)cc2)OC1=O [Example 13, (S)-6-(4-fluorophenyl)-6-(2-hydroxy-2-methylpropyl)-3-((S)-1-(4-(1-methyl-6-oxo-1,6-dihydropyridazin-3-yl)phenyl)ethyl)-1,3-oxazinan-2-one]
IC50 [1]: > 50 µM
IC50 [2, 12]: > 50 µM
IC50 [3]: > 50 µM

SMILES: Cc1cc(=O)n(C)nc1-c1ccc([C@H](C)N2CC[C@](CC(C)(C)O)(c3ccccc3)OC2=O)cc1 [Example 18*, 3-{(S)-1-[4-(1,4-Dimethyl-6-oxo-1,6-dihydro-pyridazin-3-yl)-phenyl]-ethyl}-(S)-6-(2-hydroxy-2-methyl-propyl)-6-phenyl-[1,3]oxazinan-2-one]
inhibition at 0.1 µM [8]: 63%
IC50 [6]: > 50 µM
IC50 ([2]; human): > 50 µM
IC50 [7]: > 50 µM

SMILES: O=C1O[C@@](CCO)(c2ccccc2)CCN1c1cccc(-c2ccc(F)cc2F)c1 [Comparator Compound 1]
IC50 [5]: 27 µM

SMILES: C[C@@H](c1ccc(-c2ccc(=O)n(C)n2)cc1)N1CC[C@](CC(C)(C)O)(c2ccccc2)OC1=O [Example 12, (S)-6-(2-hydroxy-2-methylpropyl)-3-((S)-1-(4-(1-methyl-6-oxo-1,6-dihydropyridazin-3-yl)phenyl)ethyl)-6-phenyl-1,3-oxazinan-2-one]
fraction unbound [9]: 0.022
IC50 [10]: > 50 µM
IC50 [11]: > 50 µM

SMILES: C[C@@H](c1ccc(-c2ccc(=O)n(CC(F)(F)F)n2)cc1)N1CC[C@](CC(C)(C)O)(c2ccccc2)OC1=O [Example 16, (S)-6-(2-hydroxy-2-methylpropyl)-3-((S)-1-(4-(6-oxo-1-(2,2,2-trifluoroethyl)-1,6-dihydropyridazin-3-yl)phenyl)ethyl)-6-phenyl-1,3-oxazinan-2-one]
IC50 [1]: 18.9 µM
IC50 [2, 12]: 15.6 µM
IC50 [3]: 13 µM

SMILES: CCn1nc(-c2ccc([C@H](C)N3CC[C@](CC(C)(C)O)(c4ccccc4)OC3=O)cc2)ccc1=O [Example 14, (S)-3-((S)-1-(4-(1-ethyl-6-oxo-1,6-dihydropyridazin-3-yl)phenyl)ethyl)-6-(2-hydroxy-2-methylpropyl)-6-phenyl-1,3-oxazinan-2-one]
IC50 [1]: 46.3 µM
IC50 ([2]; human): 32.7 µM
IC50 [3]: > 50 µM

SMILES: C[C@@H](c1ccc(-c2ccc(=O)n(C)n2)cc1)N1CC[C@](CCCO)(c2ccc(F)cc2)OC1=O [Example 10, (R)-6-(4-fluorophenyl)-6-(3-hydroxypropyl)-3-((S)-1-(4-(1-methyl-6-oxo-1,6-dihydropyridazin-3-yl)phenyl)ethyl)-1,3-oxazinan-2-one]
IC50 [4]: 14.2 µM

SMILES: O=C1OC(CCO)(c2ccccc2F)CCN1c1cccc(-c2ccc(F)cc2F)n1 (stereo not drawn) [Comparator Compound 2]
IC50 [5]: 1.4 µM

SMILES: C[C@@H](c1ccc(OC(F)F)cc1)N1CC[C@](CCO)(c2ccc(F)cc2)OC1=O [Comparator Compound 14, reference compound]
IC50 [1]: 6.4 µM
IC50 [2, 12]: 19.7 µM
IC50 [3]: 25.9 µM
IC50 [4]: 24.6 µM

Second part, the molecule after the results:

IC50 [5]: 5 µM
IC50 [6]: 2.3 µM
IC50 [2, 12]: 4.4 µM
IC50 [7]: 8.6 µM
SMILES: C[C@@H](c1ccc(-c2ccc(F)cc2F)cc1)N1CC[C@](CC(C)(C)O)(c2ccc(F)cc2)OC1=O [Comparator Compound 6, reference compound]

IC50 [6]: 28.8 µM
IC50 [2, 12]: 15.7 µM
IC50 [7]: 13.1 µM
SMILES: C[C@@H](c1ccc(-c2ccc(=O)n(C3CC3)n2)cc1)N1CC[C@](CC(C)(C)O)(c2ccccc2)OC1=O [Example 20*, 3-{(S)-1-[4-(1-Cyclopropyl-6-oxo-1,6-dihydro-pyridazin-3-yl)-phenyl]-ethyl}-(S)-6-(2-hydroxy-2-methyl-propyl)-6-phenyl-[1,3]oxazinan-2-one]

IC50 [5]: 5.1 µM
SMILES: O=C1O[C@@](CCO)(c2ccccc2)CCN1c1cccc(-c2ccc(F)cc2)n1 [Comparator Compound 4]

IC50 [6]: > 50 µM
IC50 [2, 12]: 31 µM
IC50 [7]: > 50 µM
SMILES: Cc1cc(-c2ccc([C@H](C)N3CC[C@](CC(C)(C)O)(c4ccccc4)OC3=O)cc2)nn(C)c1=O [Example 17*, 3-{(S)-1-[4-(1,5-Dimethyl-6-oxo-1,6-dihydro-pyridazin-3-yl)-phenyl]-ethyl}-(S)-6-(2-hydroxy-2-methyl-propyl)-6-phenyl-[1,3]oxazinan-2-one]

fraction unbound [9]: 0.007
IC50 [2, 12]: 14.1 µM
SMILES: C[C@@H](c1ccc(-c2ccc(F)cc2)cc1)N1CC[C@](CCC(N)=O)(c2ccccc2)OC1=O [Comparator Compound 11, reference compound]

fraction unbound [9]: 0.004
IC50 [2, 12]: 4.9 µM
SMILES: C[C@@H](c1ccc(-c2ccc(F)cc2)cc1)N1CC[C@](CC(C)(C)O)(c2ccccc2)OC1=O [Comparator Compound 12, reference compound]

IC50 [5]: 7.3 µM
IC50 [6]: 5.6 µM
IC50 [2, 12]: 4.4 µM
IC50 [7]: < 0.4 µM
SMILES: C[C@@H](c1ccc(Br)cc1)N1CC[C@](CC(C)(C)O)(c2ccc(F)cc2)OC1=O [Comparator Compound 13, reference compound]
